pIC50: −log10 of the molar value.
Legend:
uninfected 37RC cells = assay: Toxicity to uninfected cells, determined visually by microscopy (TD100)
in vitro = format: cell-based; conditions: 37RC cells, 24 h treatment; read-out: LC50 (50% lethal dose/concentration), Neutral Red
Procedure: Cell viability was determined using the Neutral Red assay. 37RC cells were seeded at density of 6×10^4 cells/well in 24-well plates and incubated for 24 h. Confluent 37RC monolayers were treated with the test compounds at different dilutions for 24 h at 37° C. After incubation, the medium was removed and the cells were incubated with RPMI medium containing 40 μg/ml Neutral Red dye (500 μl/well). After 2 h at 37° C., the monolayers were washed with phosphate-buffered saline (PBS) and then with a solution containing 1% CaCl2 and 0.5% formaldehyde. After washing, a solution containing 1% acetic acid/50% ethanol was added to the monolayers (250 μl/well). After 10 min at room temperature, the absorbance was determined with a microplate reader (Victor 1420, Wallac) at 540 nm.

[1] = Alamar Blue cytotoxicity assay; format: cell-based; conditions: human
Procedure: HeLa cells were plated in 96-well microtiter plates in 100 μl culture medium (4×10^4/well). After 20 hours, the cells were exposed to the test compounds at different dilutions and incubated for the next 8 h at 37° C. in a 5% CO2 humidified atmosphere. After 6 h incubation, the Alamar Blue was added in an amount equal to 10% of the culture volume (10 μl). Two hours after the addition of the Alamar Blue, the fluorescence was measured using a Victor 1420 microplate reader.
The LC50/μM is the concentration at which the tested compound killed half the cells in this assay.

NF-κB = assay: NF-κB-dependent luciferase reporter gene assay, HeLa κB-transformed cells, TPA stimulated; format: cell-based; conditions: Homo sapiens, HeLa, 8 h treatment, TPA 25 ng/ml 2 h after exposure, read-out: NF-κB, IC50 (concentration at which the compound halved the NF-κB activity)
Procedure: (§1) Method: HeLa cell clone 13B, stably transfected with a luciferase reporter plasmid controlled by the human hsp70 promoter, and HeLa κB-transformed cells, stably transfected with a luciferase reporter plasmid controlled by a synthetic NF-κB-STM construct, were maintained in DMEM medium supplemented with 10% FBS, L-glutamine (2 mM) and G418 (250 μg/ml) at 37° C. in a 5% CO2 humidified atmosphere.
(§2) Cells were seeded at a density of 4×10^4 cells/well in 96-well plates. After 18-20 h, the medium was removed and cells were treated for 8 h with the test compounds (100 μl) at the appropriate dilutions in serum-free medium. For the NF-κB-dependent reporter gene assay, cells were stimulated with TPA (25 ng/ml) 2 h after exposure to the compounds.
(§3) After incubation, the medium was removed and cells were lysed in 10 μl of lysis buffer. The luciferase activity was determined by adding 100 μl of substrate and measuring the release of light using a Victor 1420 microplate reader (Wallac, Finland).
The fragment Kpn I-BamH I from the pGL3 basic vector containing the luciferase gene (PROMEGA) was inserted in the pcDNA3 vector (INVITROGEN) digested with Bgl II-KpnI. (This digestion removes the CMV-promoter from pcDNA3.) The resulting new vector was digested with Kpn I-Hind III and a promoter containing a ‘5xNF-κB binding sites—TATA box’ sequence was inserted upstream of the luciferase gene. This vector has been named STM.
To obtain stable HeLa cell lines expressing the luciferase gene under the control of NF-κB, HeLa cells were transfected (using lipofectamine plus GIBCO) with the STM-Pvu I linearized vector, and selected for 20 days with G418 (800 μg/ml). After selection, the resistant HeLa cell pool was controlled (in quadruplicate samples) for luciferase activity after stimulation with TNFα, IL-1 and TPA.
(§4) The AC200/μM for HSF is the concentration at which the tested compound doubled the HSF activity in this assay. The IC50/μM for NF-κB is the concentration at which the tested compound halved the NF-κB activity in this assay.

HSF = HSF luciferase reporter assay, HeLa cell clone 13B (human hsp70 promoter); format: cell-based; conditions: 8 h, HeLa clone 13B, 8 h treatment, serum-free medium, read-out: HSF, AC200 (concentration at which the compound doubled the HSF activity)
Procedure: as §1, §2, §3, §4

Sendai virus = Sendai virus replication in 37RC cells (virus yield by HAU titration); format: cell-based; conditions: Respirovirus muris, 5 HAU/10^5 cells, virus yield at 24 hours after infection, read-out: ID50 (50% inhibitory dose/concentration), Sendai virus yield

Row | SMILES | TD100 (dose or concentration at which the compound was 100% toxic to uninfected cells) (uninfected 37RC cells) | CC50 at 24 h (in vitro) | CC50 at 8 h [1] | pIC50 (NF-κB) | EC (2-fold) (HSF) | pIC50 (Sendai virus)
1 | COc1ccc(S[C@H]2CC(=O)C[C@@H]2O[Si](C)(C)C(C)(C)C)cc1 [CTM-169] | 50 µM | 22 µM | > 800 µM | 4.42 | 26 µM | 5.82
2 | CC(C)(C)OC(=O)N[C@@H](CS[C@H]1CC(=O)C[C@@H]1O[Si](C)(C)C(C)(C)C)C(=O)OC(C)(C)C [CTM-183] | 50 µM | 28 µM |  |  |  | 5.80
3 | CC(C)(C)OC(=O)N[C@@H](CS[C@H]1CC(=O)C[C@@H]1O[Si](C)(C)C(C)(C)C)C(=O)O [CTM-145] | 50 µM | 14 µM | > 800 µM |  |  | 6.10
4 | CCOC(=O)[C@H](CS[C@H]1CC(=O)C[C@@H]1O[Si](C)(C)C(C)(C)C)NC(C)=O [CTM-131] | 50 µM | 125 µM | > 800 µM | < 4.00 | 70 µM | 5.00
5 | CCOC(=O)[C@H](CS[C@H]1CC(=O)C[C@@H]1O[Si](C)(C)C(C)(C)C)NC(=O)OC(C)(C)C [CTM-184] | 50 µM | 25 µM |  | 4.21 | 24 µM | 6.00
6 | CC(C)(C)OC(=O)N[C@@H](CS[C@H]1CC(=O)C(C)(C)C1OC(=O)C(C)(C)C)C(=O)O (stereo in doubt) [CTM-218, (2R)-2-tert-butoxycarbonylamino-3-[(1S,2R)-2-(2,2-dimethylpropionyloxy)-3,3-dimethyl-4-oxocyclopentylsulfanyl]-propionic acid] |  |  |  | 4.66 | 15 µM | 
7 | C[C@@H](CS[C@H]1CC(=O)C[C@@H]1O[Si](C)(C)C(C)(C)C)C(=O)N1CCCC1C(=O)O (some centres unmarked) [CTM-182] | 100 µM | 54 µM |  | < 4.00 | 60 µM | 5.30
8 | COC(=O)[C@H](CS[C@H]1CC(=O)CC[C@@H]1O[Si](C)(C)C(C)(C)C)NC(=O)OC(C)(C)C [CTM-68, (R)-2-tert-Butoxycarbonylamino-3-[(1S,2S)-2-(tert-butyl-dimethyl-silanyloxy)-5-oxo-cyclohexylsulfanyl]-propionic acid methyl ester] | 9.8 µM | 9.8 µM |  |  | 98 µM | 
9 | CC(=O)N[C@@H](CS[C@H]1CC(=O)C[C@@H]1O[Si](C)(C)C(C)(C)C)C(=O)O [CTM-115] | >500 µM | 228 µM | > 800 µM |  |  | 4.30
10 | CC(C)(C)OC(=O)N[C@@H](CS[C@@H]1CC(=O)C(C)(C)C1OC(=O)C(C)(C)C)C(=O)O (stereo in doubt) [CTM-217, (2R)-2-tert-butoxycarbonylamino-3-[(1R,2S)-2-(2,2-dimethylpropionyloxy)-3,3-dimethyl-4-oxocyclopentylsulfanyl]-propionic acid] |  |  |  | 4.85 | 10 µM | 
11 | CC(C)(C)[Si](C)(C)O[C@H]1CC(=O)C[C@@H]1Sc1ccc([N+](=O)[O-])cc1 [CTM-107] | 10 µM |  | 169 µM | 4.33 | 21 µM | 6.52
12 | COC(=O)C(CSC1CC(=O)CC(O[Si](C)(C)C(C)(C)C)C1)NC(=O)OC(C)(C)C (centres unmarked) [CTM-78, 2-tert-Butoxycarbonylamino-3-[3-(tert-butyl-dimethyl-silanyloxy)-5-oxo-cyclohexylsulfanyl]-propionic acid methyl ester] | 18.6 µM | 18.6 µM |  |  | 45 µM | 
13 | CC(C)(C)[Si](C)(C)OC1C=CC(=O)C1 (centres unmarked) [CTC-8, 4-tert-butyldimethylsilyloxy-cyclopent-2-en-1-one, reference compound] | 100 µM |  |  |  |  | 6.30
